Experimental findings from patent publication US11034650B2, “Compounds useful for treating a Mannheimia haemolytica or Histophilus somni infection” (Intervet Inc., priority 2016, dated 2021) are described below.

Converted amounts (≈) assume the structure as drawn. A value given as a limit tells only on which side of the number the result lay.

Type in all cases: cell-based
Assay [1] has as its system Mannheimia haemolytica MH 6357 (M7/2, reference strain, cattle infection strain). Description: MIC, broth-microdilution (CLSI VET01-A4), strain MH 6357. As to conditions: Mannheimia haemolytica strain MH 6357, broth-microdilution; unit assumed. In a few lines: (§1)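 Growth inhibition is scored visually on a doubling dilution series. The reported MIC corresponds to the lowest concentration free of turbidity, with results assessed under CLSI VET01-S3.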

Assay [2] has as its system Pasteurella multocida PM 12080 (IV102277-0093, BRD field isolate). Description: MIC, broth-microdilution (CLSI VET01-A4), strain PM 12080. As to conditions: Pasteurella multocida strain PM 12080, broth-microdilution; unit assumed. In a few lines: as §1
Assay [3] deals with Mannheimia haemolytica MH 12587 (1071, BRD field isolate, macrolide-resistance: erm+, E+). Description: MIC, broth-microdilution (CLSI VET01-A4), strain MH 12587. As to conditions: Mannheimia haemolytica strain MH 12587, broth-microdilution; unit assumed. The method in brief: as §1
(In general: In broth dilution the organism is exposed to a series of concentrations in liquid medium.)

Assay [4] deals with Mannheimia haemolytica MH 13065 (XB0446-6003.9, BRD field isolate). Briefly: MIC, broth-microdilution (CLSI VET01-A4), strain MH 13065. As to conditions: Mannheimia haemolytica strain MH 13065, broth-microdilution; unit assumed. The method in brief: as §1
The test system of assay [5] is Pasteurella multocida PM 6391 (ATCC 43137, reference strain). Description: MIC, broth-microdilution (CLSI VET01-A4), strain PM 6391. As to conditions: Pasteurella multocida strain PM 6391, broth-microdilution; unit assumed. The protocol: For example, representative compounds were tested against ***, Mannheimia haemolytica and Pasteurella multocida, using the conventional broth-dilution assay.
The Minimum inhibitory concentrations (MIC) of compounds according to the invention for a number of veterinary bacterial pathogens were determined by the broth-microdilution method according to CLSI document VET01-A4.
Microdilution trays containing a doubling dilution series of the test compound were used for the tests. The MIC results were interpreted according to the CLSI documents VET01-S3. The lowest concentration of compound at which no visible growth (i.e. no turbidity) detected by the unaided eye was recorded as the MIC.

For assay [6], the system named is Mannheimia haemolytica MH 13093 (XB0472-6014.1, BRD field isolate). Description: MIC, broth-microdilution (CLSI VET01-A4), strain MH 13093. As to conditions: Mannheimia haemolytica strain MH 13093, broth-microdilution; unit assumed. In a few lines: as §1
Assay [7] deals with Mannheimia haemolytica MH 6374 (ATCC 33396, reference strain). Briefly: MIC, broth-microdilution (CLSI VET01-A4), strain MH 6374. As to conditions: Mannheimia haemolytica strain MH 6374, broth-microdilution; unit assumed. In a few lines: as §1
For assay [8], the system named is Pasteurella multocida PM 6267 (P 2225 (L386), reference strain, mouse infection strain). Briefly: MIC, broth-microdilution (CLSI VET01-A4), strain PM 6267. As to conditions: Pasteurella multocida strain PM 6267, broth-microdilution; unit assumed. The method in brief: as §1
For assay [9], the system named is Mannheimia haemolytica MH 10720 (154, BRD field isolate). Description: MIC, broth-microdilution (CLSI VET01-A4), strain MH 10720. As to conditions: Mannheimia haemolytica strain MH 10720, broth-microdilution; unit assumed. In a few lines:
as §1

The subject of assay [10] is Pasteurella multocida PM 10775 (080130003051, BRD field isolate). Description: MIC, broth-microdilution (CLSI VET01-A4), strain PM 10775. As to conditions: Pasteurella multocida strain PM 10775, broth-microdilution; unit assumed. The method in brief: as §1

With `CC[C@H](C)[C@H](NC(=O)c1ccc(C#Cc2ccc(CN3CCS(=O)(=O)CC3)cc2)cc1)C(=O)NO` [Compound 142], the MIC MH 6357 in [1] amounted to 6.3 µg/mL (≈ 12.7 µM). In assay [2], this molecule yielded an MIC PM 12080 of 0.4 µg/mL (≈ 0.804 µM). The MIC MH 12587 in assay [3] is 25 µg/mL (≈ 50.2 µM). In [4], this molecule had an MIC MH 13065 of 12.5 µg/mL (≈ 25.1 µM). In assay [5], this molecule gave an MIC PM 6391 of 0.4 µg/mL (≈ 0.804 µM). Besides, in [6], the MIC MH 13093 stood at 12.5 µg/mL (≈ 25.1 µM). This molecule also displayed an MIC MH 6374 in assay [7] of 12.5 µg/mL (≈ 25.1 µM). In addition, in assay [8], the MIC PM 6267 is 0.2 µg/mL (≈ 0.402 µM). In addition, the MIC MH 10720 in assay [9] amounted to 3.1 µg/mL (≈ 6.23 µM). In [10], this molecule yielded an MIC PM 10775 of at most 0.1 µg/mL.

Molecule `CC[C@H](C)[C@H](NC(=O)c1ccc(C#Cc2cccc(CNC3CC3)c2)cc1)C(=O)NO` [Compound 144] returned an MIC MH 6357 in assay [1] of 6.3 µg/mL (≈ 15 µM). Further, in assay [2], the MIC PM 12080 was determined as 3.1 µg/mL (≈ 7.39 µM). In [3], this molecule gave an MIC MH 12587 of 25 µg/mL (≈ 59.6 µM). In [4], this molecule returned an MIC MH 13065 of 12.5 µg/mL (≈ 29.8 µM). For the same molecule, the MIC PM 6391 in assay [5] is 12.5 µg/mL (≈ 29.8 µM). Moreover, the MIC MH 13093 in assay [6] worked out at 12.5 µg/mL (≈ 29.8 µM). In addition, the MIC MH 6374 in assay [7] was 12.5 µg/mL (≈ 29.8 µM). In [8], this molecule gave an MIC PM 6267 of 3.1 µg/mL (≈ 7.39 µM). The molecule further displayed an MIC MH 10720 in assay [9] of 1.6 µg/mL (≈ 3.81 µM). In [10], this molecule came in with an MIC PM 10775 of 0.4 µg/mL (≈ 0.953 µM).

Turning to `O=C(N[C@@H](CO)C(=O)NO)c1ccc(C#Cc2ccc(CN3CCCC3)cc2)cc1` [Compound 145], the MIC MH 6357 in assay [1] was found to be 6.3 µg/mL (≈ 15.5 µM). In addition, the MIC PM 12080 in assay [2] is 6.3 µg/mL (≈ 15.5 µM). For the same molecule, the MIC MH 12587 in [3] worked out at 25 µg/mL (≈ 61.4 µM). The same molecule returned an MIC MH 13065 in assay [4] of 12.5 µg/mL (≈ 30.7 µM). Also, the MIC PM 6391 in assay [5] turned out to be 6.3 µg/mL (≈ 15.5 µM). In addition, the MIC MH 13093 in assay [6] worked out at 12.5 µg/mL (≈ 30.7 µM). In [7], this molecule came in with an MIC MH 6374 of 25 µg/mL (≈ 61.4 µM). In addition, in assay [8], the MIC PM 6267 is 3.1 µg/mL (≈ 7.61 µM). In assay [9], this molecule registered an MIC MH 10720 of 3.1 µg/mL (≈ 7.61 µM). This molecule also showed an MIC PM 10775 in [10] of 0.2 µg/mL (≈ 0.491 µM).

Consider `CN1CCN(Cc2ccc(C#Cc3ccc(C(=O)N[C@@H](CO)C(=O)NO)cc3)cc2)CC1` [Compound 146], for which, in [1], the MIC MH 6357 turned out to be 6.3 µg/mL (≈ 14.4 µM). Moreover, in [2], the MIC PM 12080 is at most 0.1 µg/mL. Also, in [3], the MIC MH 12587 was 25 µg/mL (≈ 57.3 µM). In [4], this molecule came in with an MIC MH 13065 of 12.5 µg/mL (≈ 28.6 µM). In assay [5], this molecule showed an MIC PM 6391 of 1.6 µg/mL (≈ 3.67 µM). In assay [6], this molecule registered an MIC MH 13093 of 25 µg/mL (≈ 57.3 µM). The molecule also displayed an MIC MH 6374 in [7] of 25 µg/mL (≈ 57.3 µM). In [8], this molecule yielded an MIC PM 6267 of 0.8 µg/mL (≈ 1.83 µM). The MIC MH 10720 in assay [9] was determined as 1.6 µg/mL (≈ 3.67 µM). The MIC PM 10775 in [10] is at most 0.1 µg/mL.

Regarding `O=C(N[C@@H](CO)C(=O)NO)c1ccc(C#Cc2ccc(CNC3CCC3)cc2)cc1` [Compound 147], the MIC MH 6357 in assay [1] was 3.1 µg/mL (≈ 7.61 µM). Moreover, in [2], the MIC PM 12080 amounted to 1.6 µg/mL (≈ 3.93 µM). For the same molecule, in assay [3], the MIC MH 12587 came out at 6.3 µg/mL (≈ 15.5 µM). In addition, the MIC MH 13065 in [4] was 6.3 µg/mL (≈ 15.5 µM). Also, the MIC PM 6391 in assay [5] was determined as 1.6 µg/mL (≈ 3.93 µM). For the same molecule, the MIC MH 13093 in assay [6] stood at 6.3 µg/mL (≈ 15.5 µM). In assay [7], the MIC MH 6374 came to 6.3 µg/mL (≈ 15.5 µM). This molecule also displayed an MIC PM 6267 in assay [8] of 0.4 µg/mL (≈ 0.982 µM). Further, the MIC MH 10720 in [9] is 3.1 µg/mL (≈ 7.61 µM). The molecule further registered an MIC PM 10775 in assay [10] of at most 0.1 µg/mL.

`O=C(N[C@@H](CO)C(=O)NO)c1ccc(C#Cc2ccc(CNC3CCCC3)cc2)cc1` [Compound 148] registered an MIC MH 6357 in assay [1] of 6.3 µg/mL (≈ 14.9 µM). The molecule also had an MIC PM 12080 in assay [2] of 1.6 µg/mL (≈ 3.8 µM). Besides, the MIC MH 12587 in assay [3] stood at 25 µg/mL (≈ 59.3 µM). This molecule gave an MIC MH 13065 in assay [4] of 12.5 µg/mL (≈ 29.7 µM). This molecule also registered an MIC PM 6391 in [5] of 1.6 µg/mL (≈ 3.8 µM). Further, the MIC MH 13093 in assay [6] was found to be 12.5 µg/mL (≈ 29.7 µM). Moreover, in [7], the MIC MH 6374 worked out at 25 µg/mL (≈ 59.3 µM). The molecule also displayed an MIC PM 6267 in assay [8] of 0.8 µg/mL (≈ 1.9 µM). In assay [9], this molecule displayed an MIC MH 10720 of 1.6 µg/mL (≈ 3.8 µM). The molecule further returned an MIC PM 10775 in assay [10] of at most 0.1 µg/mL.

The molecule `O=C(N[C@@H](CO)C(=O)NO)c1ccc(C#Cc2ccc(CNC3CCCCC3)cc2)cc1` [Compound 149] registered an MIC MH 6357 in [1] of 12.5 µg/mL (≈ 28.7 µM). In assay [2], this molecule yielded an MIC PM 12080 of 1.6 µg/mL (≈ 3.67 µM). In addition, in assay [3], the MIC MH 12587 was 25 µg/mL (≈ 57.4 µM). Also, the MIC MH 13065 in assay [4] worked out at 25 µg/mL (≈ 57.4 µM). For the same molecule, the MIC PM 6391 in assay [5] was determined as 1.6 µg/mL (≈ 3.67 µM). Moreover, the MIC MH 13093 in assay [6] worked out at 25 µg/mL (≈ 57.4 µM). This molecule registered an MIC MH 6374 in assay [7] of 25 µg/mL (≈ 57.4 µM). This molecule gave an MIC PM 6267 in [8] of 0.8 µg/mL (≈ 1.84 µM). In assay [9], this molecule showed an MIC MH 10720 of 3.1 µg/mL (≈ 7.12 µM). The MIC PM 10775 in assay [10] was at most 0.1 µg/mL.

In assay [1], `CNCc1ccc(C#Cc2ccc(C(=O)N[C@@H](CO)C(=O)NO)cc2)cc1` [Compound 150] had an MIC MH 6357 of 6.3 µg/mL (≈ 17.1 µM). The molecule also registered an MIC PM 12080 in assay [2] of at most 0.1 µg/mL. In assay [3], the MIC MH 12587 stood at 25 µg/mL (≈ 68 µM). The molecule also returned an MIC MH 13065 in assay [4] of 12.5 µg/mL (≈ 34 µM). The molecule also gave an MIC PM 6391 in assay [5] of 25 µg/mL (≈ 68 µM). Besides, the MIC MH 13093 in [6] turned out to be 25 µg/mL (≈ 68 µM). The same molecule registered an MIC MH 6374 in assay [7] of 25 µg/mL (≈ 68 µM). In addition, in assay [8], the MIC PM 6267 stood at 6.3 µg/mL (≈ 17.1 µM). The molecule further returned an MIC MH 10720 in assay [9] of 3.1 µg/mL (≈ 8.44 µM). The same molecule had an MIC PM 10775 in assay [10] of at most 0.1 µg/mL.
